Reference: US12590963B2, “Anti-cancer treatment of preselected subjects and screening methods to identify susceptible subjects” (TUDAG TU Dresden Aktiengesellschaft, priority 2018, dated 2026)

System: U-87 cells
Test: Drug screening of FDA-approved compound library, cell viability by ATP levels (ATPLite)
Assay type: cell-based, human
Conditions: FGFJI medium
Protocol: A library of 1,600 FDA-approved compounds was screened on U-87 cells cultured in the improved conditions. Each drug was screened at both 3 micromolar and 10 micromolar concentrations. Cell viability was assessed by measuring ATP levels.
Drugs that opposed cell viability were further investigated. These drugs were re-screened under the more common cell culture conditions (in serum-supplemented RMPI medium, where cells are more differentiated). Some drugs were identified that also opposed growth under the more differentiated conditions. We also identified some drugs that only opposed growth in the improved conditions. It was focused on the latter drugs only as being the target compounds of the present invention.
White Corning 384 well plates (Cat #3570) were coated with 40 ul of […] polyornithine (Sigma, #P-365) at 370C overnight. The next day the plates were washed 5 times with water using a BioTek EL 406 plate washer. The plates were then coated with 40 ul of 1 mg/ml fibronectin (R&D Systems, #1030-Fn) for 2 hours at 370C and then washed 2 times with PBS. Either 15nl or 50nl of either 10 mM library compounds (MicroSource Pharmakon library) or 100% DMSO as negative control or 1 mM Staurosporine (ACROS #328532500) were dispensed with a Labcyte Echo 550 to screen the library at 3u M and 10 μM respectively. U87 cells were seeded in the plates with a WellMate drop dispenser (ThermoFischer) at a density of 3000 cells per well in 50 μl N2 medium and incubated for 20 hours at 37 °C in 5% C02. Cell viability was assayed using Perkin Elmer ATPLite (Cat 6016731) according to vendor's instructions. For the dose dependent verification assay, cells were seeded in N2 medium with or without serum to test the specificity of compound action.
A library of 1,600 FDA-approved compounds was screened at two different concentrations (10 μM and 3 μM) on U-87 cells cultured in FGFJI (FIG. 8).

[1] = 10 μM, second value of the cell

| Structure (SMILES) | ATP assay score (3 μM, 10 μM) (3 μM, first value of the cell) | ATP assay score (3 μM, 10 μM) [1] |
| --- | --- | --- |
| Oc1c(Cl)cc(Cl)cc1Sc1cc(Cl)cc(Cl)c1O.[Na+] [BITHIONATE Na, sodium 2,4-dichloro-6-(3,5-dichloro-2-hydroxyphenyl)sulfanylphenol] | −11 | −10 |
| CC(C)(C)CC(C)(C)c1ccc(O)c(Cc2ccc(Cl)cc2Cl)c1 [CLOFOCTOL, 2-[(2,4-dichlorophenyl)methyl]-4-(2,4,4-trimethylpentan-2-yl)phenol] | −11 | −5 |
| Oc1c(I)cc(Cl)c2cccnc12 [CLIOQUINOL, 5-chloro-7-iodoquinolin-8-ol] | −11 | −7 |
| Oc1cc(Cl)ccc1Oc1ccc(Cl)cc1Cl [TRICLOSAN, 5-chloro-2-(2,4-dichlorophenoxy)phenol] | −7 | −5 |
| CC[C@@H](C(=O)[C@@H](C)[C@@H](O)[C@H](C)CCc1ccc(C)c(O)c1C(=O)[O-])[C@H]1O[C@](CC)([C@H]2CC[C@](O)(CC)[C@H](C)O2)C[C@@H]1C.[Na+] [LASALOCID Na, sodium 6-[(3R,4S,5S,7R)-7-[(2S,3S,5S)-5-ethyl-5-[(2R,5R,6S)-5-ethyl-5-hydroxy-6-methyloxan-2-yl]-3-methyloxolan-2-yl]-4-hydroxy-3,5-dimethyl-6-oxononyl]-2-hydroxy-3-methylbenzoate] | −10 | −5 |
| Oc1c(Br)cc(Br)c2cccnc12 [BROXYQUINOLINE, 5,7-dibromoquinolin-8-ol] | −11 | −8 |
